Test results from patent EP0394314B2, “MULTIPLE STEP ENTRAPMENT/LOADING PROCEDURE FOR PREPARING […]-[…]” (VESTAR, INC., priority 1987, dated 1989).
Structures can show the parent of a compound that is named as a salt.

Legend:
[1] = system: White blood cell (w.b.c.) counts; test: White blood cell counts after doxorubicin treatment; format: in vivo, CD2F1 mice; details: doxorubicin dose 40 mg/kg (for the equivalent hydrochloride); four days post therapy
Experimental: White blood cell (w.b.c.) counts were performed on CD2F1 mice receiving doxorubicin doses of 40 mg/kg (for the equivalent hydrochloride). Mice receiving free drug experienced severe depression in w.b.c. counts: at four days post therapy, counts were only 8.5% of pretherapy values. In contrast, mice treated with doxorubicin vesicles prepared in accordance with this invention (Example III) at the same doxorubicin dosage experienced only moderate suppression in w.b.c. counts: at four days post therapy, counts were 75% of pretherapy values.

[2] = Maximum tolerated dose of a single intravenous dose; details: mouse, in vivo, CD2F1 mice, vesicles normalized to the hydrochloride, read-out: maximum tolerated dose (MTD, non-lethal)
Experimental: This compares to an MTD of about 40 mg/kg (normalized to the hydrochloride) for doxorubicin vesicles prepared as described in Example III. In contrast, the MTD for doxorubicin vesicles, when prepared as described in Example III with the exception that citric acid was substituted for lactobionic acid, was only about 10 mg/kg, less than the MTD for the free drug.

[3] = Toxicity of doxorubicin vesicles versus free drug, intravenous tests in mice; format: in vivo; details: 20 mg/kg or equivalent dose
Description: In nearly all instances of vesicle-entrapped doxorubicin reported in the literature, the loaded vesicles are less toxic than the free drug.
Doxorubicin vesicles can also be prepared with citric acid.

In the case of COc1cccc2c1C(=O)c1c(O)c3c(c(O)c1C2=O)C[C@@](O)(C(=O)CO)C[C@@H]3O[C@H]1C[C@H](N)[C@H](O)[C@H](C)O1 [doxorubicin hydrochloride], the “w.b.c. counts, % of pretherapy values” [1] is reported as 8.5%, the MTD [2] is reported as about 25 mg/kg and the tolerance of dose [3] is reported as “tolerated”.
